From patent US20050129610A1, “Imaging agents and methods of imaging alpha7-nicotinic cholinergic receptor” (Johns Hopkins University, priority 2003, published 2005)
Where two headings read alike, the source gives them in different places.

Experiments:
[1] = target: T1, α7-nAChR (Mus musculus, UniProt P49582); assay: In vivo binding specificity (receptor blockade) study; design: species or system male CD-1 mice
T1 construct: Male CD-1 mice weighing between 20 and 25 g received an injection; from tissue; host or cells: brain of living male CD-1 mice (hippocampus, cortex and other regions)
T1 sequence (P49582 23-502): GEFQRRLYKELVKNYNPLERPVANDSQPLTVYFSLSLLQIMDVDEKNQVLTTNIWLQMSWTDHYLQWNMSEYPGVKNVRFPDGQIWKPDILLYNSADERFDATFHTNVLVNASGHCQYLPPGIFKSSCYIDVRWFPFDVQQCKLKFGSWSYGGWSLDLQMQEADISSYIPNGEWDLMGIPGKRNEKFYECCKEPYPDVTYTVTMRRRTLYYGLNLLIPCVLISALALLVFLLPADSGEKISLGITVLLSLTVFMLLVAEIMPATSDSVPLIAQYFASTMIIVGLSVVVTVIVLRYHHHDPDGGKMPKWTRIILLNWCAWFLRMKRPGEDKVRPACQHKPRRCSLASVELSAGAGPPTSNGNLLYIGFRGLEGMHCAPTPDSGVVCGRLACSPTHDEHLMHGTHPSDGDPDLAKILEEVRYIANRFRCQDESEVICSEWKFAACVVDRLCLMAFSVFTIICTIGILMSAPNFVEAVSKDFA
Procedure: (§1) Rodent In Vivo Biodistribution Studies of 1-4. Male CD-1 mice weighing between 20 and 25 g received an injection of 3.7 MBq (100 μCi) for 1 and 2 and 0.67 MBq ([…]) for 3 and 4 through the tail vein. The corresponding amounts administered were 0.2-0.8 μg/kg for 1 and 2 and 0.01-0.02 μg/kg for 3 and 4. For kinetic studies of 1-4, the mice were killed by cervical dislocation at 5, 15, 30 and 60 min after intravenous injection of radiotracer in 200 μL saline vehicle. The brains were removed and placed on ice, and the cerebellum, olfactory bulb, hypothalamus, hippocampus, striatum, cortex, brain stem and thalamus were harvested. A 45 min time point was obtained for 2 and one at 120 min for 3 and 4. The tissue samples were weighed and their radioactivity determined in an automated □ counter (1282 Compugamma CS; Pharmacia/LKB Nuclear Inc., Gaithersburg, Md.). The radioactivity concentration in aliquots of the injected tracer were determined along with the samples and served as standards for the calculation of percentage injected dose per gram of tissue (% ID/g). To assess binding specificity, subgroups of mice were treated with 10 mg/kg nicotine (for D or increasing doses of unlabeled 4 (0.01-10 mg/kg) 5 min prior to injection of radiotracer. Mice were killed at 30 and 60 min after blockade for 3 and 4, respectively.

[2] = Rodent in vivo biodistribution (brain kinetics); design: species or system male CD-1 mice; settings: for Uptake/retention in target tissue (hippocampus): mouse hippocampus vs other brain substructures, FIG. 1 / FIG. 3; for Uptake within the brain (in words): i.v. radiotracer; for Brain distribution, CB: cerebellum; for Brain distribution, CB / Brain distribution, CTX / Brain distribution, HIPP / Brain distribution, HYPO / Brain distribution, STR / Brain distribution, THAL: mice; for Brain distribution, CTX: cortex; for Brain distribution, HIPP: hippocampus; for Brain distribution, HYPO: hypothalamus; for Brain distribution, STR: striatum; for Brain distribution, THAL: thalamus
Procedure: as §1

[3] = target: rat α7 nAChR (Rattus norvegicus, UniProt Q05941); assay: Receptor binding assay, rat α7 nAChR
Chain of rat α7 nAChR (Q05941 23-502): as the sequence (P49582 23-502) above, with T402A counted along it
Procedure: (§2) Receptor Binding Assays. The affinities of 1-4 for the rat α4β2 and α7 nAChRs were determined as described previously (Mullen, et al., J. Med. Chem.; 2000;43(22):4045-50). Affinities for the rat 5-HT3 receptor were also determined as described previously (Macor, et al., Bioorg. Med. Chem. Lett. 2001;11(3):319-21). All Ki determinations were done using 5-7 concentrations. […] There was a wide margin in selectivity compared to the α4β2 receptor subtype. Also included are the relative binding affinities to the 5-HT3 receptor, which has high sequence homology to the α7-nAChR.

[4] = target: rat α4β2 nAChR (Rattus norvegicus, UniProt P09483+P12390); assay: Receptor binding assay, rat α4β2 nAChR (selectivity); settings: binding selectivity vs rat α4β2 nAChR
Chain of rat α4β2 nAChR (P09483 31-630): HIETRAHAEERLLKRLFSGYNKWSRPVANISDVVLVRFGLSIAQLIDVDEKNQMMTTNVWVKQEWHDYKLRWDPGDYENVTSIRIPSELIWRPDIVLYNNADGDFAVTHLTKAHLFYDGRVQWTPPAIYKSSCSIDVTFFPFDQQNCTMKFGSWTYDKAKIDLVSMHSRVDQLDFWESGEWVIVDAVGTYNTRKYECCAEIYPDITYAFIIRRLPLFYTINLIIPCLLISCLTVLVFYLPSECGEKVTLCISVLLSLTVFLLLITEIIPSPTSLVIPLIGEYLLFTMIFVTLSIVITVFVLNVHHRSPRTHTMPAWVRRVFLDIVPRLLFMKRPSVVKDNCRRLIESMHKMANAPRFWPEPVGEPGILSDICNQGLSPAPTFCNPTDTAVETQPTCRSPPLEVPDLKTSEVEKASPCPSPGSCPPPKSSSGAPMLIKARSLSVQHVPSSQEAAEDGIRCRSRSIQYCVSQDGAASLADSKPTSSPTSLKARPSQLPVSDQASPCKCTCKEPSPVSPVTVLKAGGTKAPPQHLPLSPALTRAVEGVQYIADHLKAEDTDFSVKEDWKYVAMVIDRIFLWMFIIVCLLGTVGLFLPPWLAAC
Chain of rat α4β2 nAChR (P12390 25-500): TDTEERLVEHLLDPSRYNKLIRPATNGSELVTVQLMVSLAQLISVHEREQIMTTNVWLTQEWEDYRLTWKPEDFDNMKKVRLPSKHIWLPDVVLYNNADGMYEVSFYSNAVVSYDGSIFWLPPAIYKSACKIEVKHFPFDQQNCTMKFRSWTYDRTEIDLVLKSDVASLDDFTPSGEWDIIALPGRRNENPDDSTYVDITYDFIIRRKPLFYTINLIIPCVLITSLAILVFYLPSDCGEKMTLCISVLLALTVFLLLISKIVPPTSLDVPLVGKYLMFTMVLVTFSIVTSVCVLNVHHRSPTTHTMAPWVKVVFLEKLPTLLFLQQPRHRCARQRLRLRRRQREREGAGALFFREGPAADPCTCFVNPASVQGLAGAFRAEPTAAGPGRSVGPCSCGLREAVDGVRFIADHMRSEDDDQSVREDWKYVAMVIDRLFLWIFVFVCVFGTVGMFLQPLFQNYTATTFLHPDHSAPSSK
Procedure: as §2

[5] = target: T2, rat 5-HT3 receptor (Rattus norvegicus, UniProt P35563); assay: Receptor binding assay, rat 5-HT3 receptor (selectivity); settings: binding selectivity vs rat 5-HT3 receptor
T2 sequence (P35563 24-483): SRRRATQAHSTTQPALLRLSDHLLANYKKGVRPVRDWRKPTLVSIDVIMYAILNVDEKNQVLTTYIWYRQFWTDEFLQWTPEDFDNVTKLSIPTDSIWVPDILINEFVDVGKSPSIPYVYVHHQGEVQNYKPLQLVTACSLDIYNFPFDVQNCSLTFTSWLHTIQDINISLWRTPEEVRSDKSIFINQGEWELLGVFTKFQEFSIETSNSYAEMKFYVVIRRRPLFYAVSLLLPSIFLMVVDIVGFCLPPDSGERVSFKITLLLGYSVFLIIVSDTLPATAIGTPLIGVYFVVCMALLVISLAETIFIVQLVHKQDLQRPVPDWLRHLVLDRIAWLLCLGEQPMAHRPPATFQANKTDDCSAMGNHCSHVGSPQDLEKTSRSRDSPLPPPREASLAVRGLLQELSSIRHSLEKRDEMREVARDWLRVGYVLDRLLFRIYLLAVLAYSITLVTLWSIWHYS
Procedure: as §2

[6] = rat α7 nAChR, nonradioactive analogs, 5-7 concentrations, read-out: Ki

O=C(NC1CN2CCC1CC2)c1ccc([125I])cc1 [Compound 3, N-(R)-1-Aza-bicyclo[2.2.2]oct-3-yl-4-[^125I]iodo-benzamide]
Blocking study (nicotine blockade) ([1]; 10 mg/kg nicotine 5 min before radiotracer, mice killed at 30 min, FIG. 2): failed to demonstrate regionally-selective blockade, although significantly decreased radiotracer uptake was demonstrated in the regions studied | Uptake values within the brain ([2]; mouse brain, FIG. 1): < 0.4 % ID/g | Uptake/retention in target tissue (hippocampus) [2]: retention within hippocampus, a target tissue, was demonstrated

[125I]c1occc1-c1cnc2c(c1)CC1(CN3CCC1CC3)O2 (stereo not drawn) [Compound 4, (2′R)-5′-(2-[^125I]iodo-3-furanyl)spiro[1-azabicyclo[2.2.2]octane]-3,2′(3′H)-furo[2,3-b]pyridine]
Ki [3, 6]: 0.26 nM | Receptor blockade study ([1]; unlabeled 4 (0.01-10 mg/kg) 5 min before radiotracer, mice killed at 60 min, FIG. 4): significant blockade in the target tissue and slightly less so in cortex | Uptake within the brain (in words) ([2]; mouse brain): gained ready access to the brain | Uptake/retention in target tissue (hippocampus) [2]: modest but higher uptake in target tissue (hippocampus) than within other brain substructures

O=C(NC1CN2CCC1CC2)c1ccc(Br)cc1 (stereo not drawn) [3 (precursor)]
Ki [3, 6]: 18 nM | α7/α4 [4]: 36000 (1) | α7/5-HT3 [5]: 280 (1)

[11CH3]Sc1ccc(C(=O)NC2CN3CCC2CC3)cc1 [Compound 2, N—(R)-1-aza-bicyclo[2.2.2]oct-3-yl-4-[^11C]methylsulfanyl-benzamide]
Ki [3]: 5.8 nM | Brain distribution, CB ([2]; 5 min post i.v. injection): 0.23 ± 0.01 % ID/g | Brain distribution, CB ([2]; 15 min post i.v. injection): 0.26 ± 0.04 % ID/g | Brain distribution, CB ([2]; 30 min post i.v. injection): 0.14 ± 0.03 % ID/g | Brain distribution, CB ([2]; 45 min post i.v. injection): 0.09 ± 0.01 % ID/g | Brain distribution, CB ([2]; 60 min post i.v. injection): 0.08 ± 0.01 % ID/g | Brain distribution, CTX ([2]; 5 min post i.v. injection): 0.16 ± 0.04 % ID/g | Brain distribution, CTX ([2]; 15 min post i.v. injection): 0.17 ± 0.03 % ID/g | Brain distribution, CTX ([2]; 30 min post i.v. injection): 0.14 ± 0.05 % ID/g | Brain distribution, CTX ([2]; 45 min post i.v. injection): 0.10 ± 0.02 % ID/g | Brain distribution, CTX ([2]; 60 min post i.v. injection): 0.10 ± 0.02 % ID/g | Brain distribution, HIPP ([2]; 5 min post i.v. injection): 0.15 ± 0.01 % ID/g | Brain distribution, HIPP ([2]; 15 min post i.v. injection): 0.24 ± 0.04 % ID/g | Brain distribution, HIPP ([2]; 30 min post i.v. injection): 0.14 ± 0.03 % ID/g | Brain distribution, HIPP ([2]; 45 min post i.v. injection): 0.13 ± 0.02 % ID/g | Brain distribution, HIPP ([2]; 60 min post i.v. injection): 0.12 ± 0.02 % ID/g | Brain distribution, HYPO ([2]; 5 min post i.v. injection): 0.30 ± 0.02 % ID/g | Brain distribution, HYPO ([2]; 15 min post i.v. injection): 0.55 ± 0.05 % ID/g | Brain distribution, HYPO ([2]; 30 min post i.v. injection): 0.22 ± 0.04 % ID/g | Brain distribution, HYPO ([2]; 45 min post i.v. injection): 0.22 ± 0.09 % ID/g | Brain distribution, HYPO ([2]; 60 min post i.v. injection): 0.27 ± 0.05 % ID/g | Regional selectivity of brain uptake ([2]; mouse brain, all time points, in words): no regional selectivity | Uptake within the brain (in words) ([2]; mouse brain): limited uptake | Brain distribution, STR ([2]; 5 min post i.v. injection): 0.22 ± 0.06 % ID/g | Brain distribution, STR ([2]; 15 min post i.v. injection): 0.37 ± 0.05 % ID/g | Brain distribution, STR ([2]; 30 min post i.v. injection): 0.16 ± 0.03 % ID/g | Brain distribution, STR ([2]; 45 min post i.v. injection): 0.15 ± 0.05 % ID/g | Brain distribution, STR ([2]; 60 min post i.v. injection): 0.18 ± 0.05 % ID/g | Brain distribution, THAL ([2]; 5 min post i.v. injection): 0.18 ± 0.02 % ID/g | Brain distribution, THAL ([2]; 15 min post i.v. injection): 0.26 ± 0.09 % ID/g | Brain distribution, THAL ([2]; 30 min post i.v. injection): 0.13 ± 0.03 % ID/g | Brain distribution, THAL ([2]; 45 min post i.v. injection): 0.10 ± 0.01 % ID/g | Brain distribution, THAL ([2]; 60 min post i.v. injection): 0.14 ± 0.03 % ID/g | α7/α4 [4]: 14,000 (1) | α7/5-HT3 [5]: 1100 (1)
